Experimental data: patent US12365692B2, “6-hydroxy-8-oxatricyclo[3.2.1.02,4]octane-2-carboxamide derivatives for inducing chondrogenesis for treating joint damage” (NOVARTIS AG, priority 2018, dated 2025)

Test system: ALP in NHAC (normal human articular chondrocytes)
Assay: Alkaline Phosphatase (ALP) activity assay: ALP staining and quantitation in NHACs (prevention of chondrocyte hypertrophy)
Assay type: cell-based
Conditions: Chondrocyte, 288 h, human IL-1 beta 10 ng/mL, 12 days; for IC50: Fast Blue RR staining, high content imaging; for Emax: read-out: ALP in NHAC (% Efficacy)
Description: The compounds of the present invention were evaluated in the Alkaline Phosphatase (ALP) activity assay to determine the ability of the compounds to prevent chondrocyte hypertrophy in normal human articular chondrocytes (NHACs).
Normal human articular chondrocytes (NHACs) were purchased from PromoCell (Heidelberg, Germany) and grown in Chondrocyte Growth Medium (CGM; Lonza, Walkersville, Md.).
NHACs were expanded in Chondrocyte Growth Medium (CGM) from Lonza until they reached a 60-80% confluency. To initiate differentiation, 7,500 cells were plated/well with indicated test compound dose in 384-well Cell Carrier Ultra plates (Perkin Elmer) with DMEM (SH30022—HyClone) containing 10% FBS (35-015-CV—Corning), 1% Pen/Strep antibiotics (SV30010—HyClone), and 1% Normocin (50 mg/mL—InvivoGen). Cells with test compounds were incubated at 37° C., 5% CO2 for 5 hours and then added human IL-1 beta (AF-200-1B—Peprotech) to each well at a final concentration of 10 ng/mL and incubated at 37° C., 5% CO2 for 12 days.
To detect the presence of hypertrophic cells, NHACs were fixed with 4% paraformaldehyde and Hoechst 33342 (Invitrogen) dye for 30 minutes, rinsed in PBS, then stained with Fast Blue RR Salt (F0500—Sigma) with Naphthol AS-MX Phosphate Alkaline Solution, 0.25% (855—Sigma-Aldrich).
The staining was imaged by fluoresecent microscopy, using the 561 nm wavelength, and/or quantified by high content imaging with the ImageXpress Confocal (Molecular Devices, Sunnyvale, CA). Data analyses were performed with a customized multiwavelength cell-scoring application The activity of the compounds of the present invention in the ALP assay is summarized in Table 2.

With `Cn1cc([C@@]23C[C@]2(C(=O)Nc2cc(C(F)(F)F)ccn2)[C@H]2C[C@H](O)[C@@H]3O2)c(C(F)(F)F)n1` (racemic) [Example 43, rac-(1R,2R,4S,5R,6S)-6-hydroxy-4-(1-methyl-3-(trifluoromethyl)-1H-pyrazol-4-yl)-N-(4-(trifluoromethyl)pyridin-2-yl)-8-oxatricyclo[3.2.1.02,4]octane-2-carboxamide] the IC50 was greater than 30 µM and the Emax was 49%.

With `Cn1cc([C@@]23C[C@]2(C(=O)Nc2cc(C(F)(F)F)cc(Cl)n2)[C@H]2C[C@H](O)[C@@H]3O2)c(C(F)(F)F)n1` (racemic) [Example 44, rac-(1R,2R,4S,5R,6S)—N-(6-chloro-4-(trifluoromethyl)pyridin-2-yl)-6-hydroxy-4-(1-methyl-3-(trifluoromethyl)-1H-pyrazol-4-yl)-8-oxatricyclo[3.2.1.02,4]octane-2-carboxamide] the IC50 was greater than 30 µM and the Emax was 37%.

With `Cn1cc([C@@]23C[C@]2(C(=O)Nc2cc(C(F)(F)F)c(Cl)cn2)[C@H]2C[C@H](O)[C@@H]3O2)c(C(F)(F)F)n1` (racemic) [Example 45, rac-(1R,2R,4S,5R,6S)—N-(5-chloro-4-(trifluoromethyl)pyridin-2-yl)-6-hydroxy-4-(1-methyl-3-(trifluoromethyl)-1H-pyrazol-4-yl)-8-oxatricyclo[3.2.1.02,4]octane-2-carboxamide] the IC50 was greater than 30 µM and the Emax was 46%.

`Cn1cc([C@@]23C[C@]2(C(=O)Nc2cc(C(F)(F)F)cc(C4CC4)n2)[C@H]2C[C@H](O)[C@@H]3O2)c(C(F)(F)F)n1` (racemic) [Example 46, rac-(1R,2R,4S,5R,6S)—N-(6-cyclopropyl-4-(trifluoromethyl)pyridin-2-yl)-6-hydroxy-4-(1-methyl-3-(trifluoromethyl)-1H-pyrazol-4-yl)-8-oxatricyclo[3.2.1.02,4]octane-2-carboxamide] gave an IC50 of 27 µM and an Emax of 82%.

Work on `Cc1cc(C(F)(F)F)cc(NC(=O)[C@]23C[C@@]2(c2cn(C)nc2C(F)(F)F)[C@H]2O[C@@H]3C[C@@H]2O)n1` (racemic) [Example 47, rac-(1R,2R,4S,5R,6S)-6-hydroxy-4-(1-methyl-3-(trifluoromethyl)-1H-pyrazol-4-yl)-N-(6-methyl-4-(trifluoromethyl)pyridin-2-yl)-8-oxatricyclo[3.2.1.02,4]octane-2-carboxamide] yielded an IC50 greater than 30 µM and an Emax of 36%.

With `CCOc1cc(C(F)(F)F)cc(NC(=O)[C@]23C[C@@]2(c2cn(C)nc2C(F)(F)F)[C@H]2O[C@@H]3C[C@@H]2O)n1` (racemic) [Example 48, rac-(1R,2R,4S,5R,6S)—N-(6-ethoxy-4-(trifluoromethyl)pyridin-2-yl)-6-hydroxy-4-(1-methyl-3-(trifluoromethyl)-1H-pyrazol-4-yl)-8-oxatricyclo[3.2.1.02,4]octane-2-carboxamide] the IC50 was greater than 30 µM and the Emax was 40%.

`Cn1cc([C@@]23C[C@]2(C(=O)Nc2cccc(C(F)(F)F)c2)[C@H]2C[C@H](O)[C@@H]3O2)c(C(F)(F)F)n1` (racemic) [Example 49, rac-(1R,2R,4S,5R,6S)-6-hydroxy-4-(1-methyl-3-(trifluoromethyl)-1H-pyrazol-4-yl)-N-(3-(trifluoromethyl)phenyl)-8-oxatricyclo[3.2.1.02,4]octane-2-carboxamide] was tested, and the IC50 was greater than 30 µM and the Emax was 35%.

For `Cc1c(NC(=O)[C@]23C[C@@]2(c2cn(C)nc2C(F)(F)F)[C@H]2O[C@@H]3C[C@@H]2O)cccc1C(F)(F)F` (racemic) [Example 50, rac-(1R,2R,4S,5R,6S)-6-hydroxy-4-(1-methyl-3-(trifluoromethyl)-1H-pyrazol-4-yl)-N-(2-methyl-3-(trifluoromethyl)phenyl)-8-oxatricyclo[3.2.1.02,4]octane-2-carboxamide], the IC50 was greater than 30 µM and the Emax was 33%.

With `Cc1ccc(NC(=O)[C@]23C[C@@]2(c2cn(C)nc2C(F)(F)F)[C@H]2O[C@@H]3C[C@@H]2O)cc1C(F)(F)F` (racemic) [Example 51, rac-(1R,2R,4S,5R,6S)-6-hydroxy-4-(1-methyl-3-(trifluoromethyl)-1H-pyrazol-4-yl)-N-(4-methyl-3-(trifluoromethyl)phenyl)-8-oxatricyclo[3.2.1.02,4]octane-2-carboxamide] the IC50 was greater than 30 µM and the Emax was 45%.

Work on `Cc1cc(NC(=O)[C@]23C[C@@]2(c2cn(C)nc2C(F)(F)F)[C@H]2O[C@@H]3C[C@@H]2O)cc(C(F)(F)F)c1` (racemic) [Example 52, rac-(1R,2R,4S,5R,6S)-6-hydroxy-4-(1-methyl-3-(trifluoromethyl)-1H-pyrazol-4-yl)-N-(3-methyl-5-(trifluoromethyl)phenyl)-8-oxatricyclo[3.2.1.02,4]octane-2-carboxamide] yielded an IC50 of 21 µM and an Emax of 70%.

`Cc1ccc(C(F)(F)F)cc1NC(=O)[C@]12C[C@@]1(c1cn(C)nc1C(F)(F)F)[C@H]1O[C@@H]2C[C@@H]1O` (racemic) [Example 53, rac-(1R,2R,4S,5R,6S)-6-hydroxy-4-(1-methyl-3-(trifluoromethyl)-1H-pyrazol-4-yl)-N-(2-methyl-5-(trifluoromethyl)phenyl)-8-oxatricyclo[3.2.1.02,4]octane-2-carboxamide] was tested, and the IC50 was greater than 30 µM and the Emax was 23%.

`Cn1cc([C@@]23C[C@]2(C(=O)Nc2cccc(C(F)(F)F)c2F)[C@H]2C[C@H](O)[C@@H]3O2)c(C(F)(F)F)n1` (racemic) [Example 54, rac-(1R,2R,4S,5R,6S)—N-(2-fluoro-3-(trifluoromethyl)phenyl)-6-hydroxy-4-(1-methyl-3-(trifluoromethyl)-1H-pyrazol-4-yl)-8-oxatricyclo[3.2.1.02,4]octane-2-carboxamide] gave an IC50 greater than 30 µM and an Emax of 7%.

`Cn1cc([C@@]23C[C@]2(C(=O)Nc2ccc(F)c(C(F)(F)F)c2)[C@H]2C[C@H](O)[C@@H]3O2)c(C(F)(F)F)n1` (racemic) [Example 55, rac-(1R,2R,4S,5R,6S)-N-(4-fluoro-3-(trifluoromethyl)phenyl)-6-hydroxy-4-(1-methyl-3-(trifluoromethyl)-1H-pyrazol-4-yl)-8-oxatricyclo[3.2.1.02,4]octane-2-carboxamide] was tested, and the IC50 was greater than 30 µM and the Emax was 14%.

In the case of `Cn1cc([C@@]23C[C@]2(C(=O)Nc2cc(F)cc(C(F)(F)F)c2)[C@H]2C[C@H](O)[C@@H]3O2)c(C(F)(F)F)n1` (racemic) [Example 56, rac-(1R,2R,4S,5R,6S)—N-(3-fluoro-5-(trifluoromethyl)phenyl)-6-hydroxy-4-(1-methyl-3-(trifluoromethyl)-1H-pyrazol-4-yl)-8-oxatricyclo[3.2.1.02,4]octane-2-carboxamide], the IC50 is reported as greater than 30 µM and the Emax is reported as 30%.

With `Cn1cc([C@@]23C[C@]2(C(=O)Nc2cc(C(F)(F)F)ccc2F)[C@H]2C[C@H](O)[C@@H]3O2)c(C(F)(F)F)n1` (racemic) [Example 57, rac-(1R,2R,4S,5R,6S)-N-(2-fluoro-5-(trifluoromethyl)phenyl)-6-hydroxy-4-(1-methyl-3-(trifluoromethyl)-1H-pyrazol-4-yl)-8-oxatricyclo[3.2.1.02,4]octane-2-carboxamide] the IC50 was greater than 30 µM and the Emax was 24%.

With `Cn1cc([C@@]23C[C@]2(C(=O)Nc2ccc(Cl)c(C(F)(F)F)c2)[C@H]2C[C@H](O)[C@@H]3O2)c(C(F)(F)F)n1` (racemic) [Example 58, rac-(1R,2R,4S,5R,6S)—N-(4-chloro-3-(trifluoromethyl)phenyl)-6-hydroxy-4-(1-methyl-3-(trifluoromethyl)-1H-pyrazol-4-yl)-8-oxatricyclo[3.2.1.02,4]octane-2-carboxamide] the IC50 was greater than 30 µM and the Emax was 29%.
